Tests used:
[1] = molecular target: D(2) dopamine receptor (Rattus norvegicus) (UniProt P61169); experiment: In vitro binding affinity for Dopamine receptor D2 of rat nucleus accumbens labeled with [3H]spiperone was determined at 10 uM concentration
[2] = tested on: Rattus norvegicus; experiment: Antipsychotic activity was assessed by ability to block response of rats trained to avoid an electrical shock (inhibition of self-jump and/or discrete trial conditioned avoidance response(CAR) upon ip administration; type: functional
[3] = tested on: Rattus norvegicus; experiment: Antipsychotic activity was assessed by ability to block response of rats trained to avoid an electrical shock (inhibition of self-jump and/or discrete trial conditioned avoidance response(CAR) upon ip administration; value ranges from 9-24; type: functional
[4] = molecular target: T1, D(2) dopamine receptor (Rattus norvegicus, UniProt P61169); experiment: In vitro binding affinity for Dopamine receptor D2 of rat striatum labeled with [3H]-spiperone was determined
[5] = tested on: Rattus norvegicus; experiment: Antipsychotic activity was assessed by ability to block response of rats trained to avoid an electrical shock (inhibition of self-jump and/or discrete trial conditioned avoidance response(CAR) upon po administration; value ranges from 30-33; type: functional
[6] = molecular target: D(2) dopamine receptor (Rattus norvegicus) (UniProt P61169); experiment: In vitro binding affinity for Dopamine receptor D2 of rat nucleus accumbens labeled with [3H]spiperone was determined at 1 uM concentration
[7] = tested on: Rattus norvegicus; experiment: Antipsychotic activity was assessed by ability to block response of rats trained to avoid an electrical shock (inhibition of self-jump and/or discrete trial conditioned avoidance response(CAR) upon ip administration.; type: functional
[8] = molecular target: D(2) dopamine receptor (Rattus norvegicus) (UniProt P61169); experiment: In vitro binding affinity for Dopamine receptor D2 of rat nucleus accumbens labeled with [3H]-spiperone was determined at 1 uM concentration
[9] = tested on: Rattus norvegicus; experiment: Antipsychotic activity was assessed by ability to block response of rats trained to avoid an electrical shock (inhibition of self-jump and/or discrete trial conditioned avoidance response(CAR) upon ip administration; value ranges from 14-49; type: functional
[10] = tested on: Rattus norvegicus; experiment: Antipsychotic activity was assessed by ability to block response of rats trained to avoid an electrical shock (inhibition of self-jump and/or discrete trial conditioned avoidance response (CAR) upon ip administration.* >40 indicates insignificant aactivity; type: functional
[11] = tested on: Rattus norvegicus; experiment: Antipsychotic activity was assessed by ability to block response of rats trained to avoid an electrical shock (inhibition of self-jump and/or discrete trial conditioned avoidance response(CAR) upon ip administration; value ranges from 19-78; type: functional
[12] = tested on: Rattus norvegicus; experiment: Antipsychotic activity was assessed by ability to block response of rats trained to avoid an electrical shock (inhibition of self-jump and/or discrete trial conditioned avoidance response(CAR) upon ip administration; value ranges from 30-62; type: functional
[13] = molecular target: D(2) dopamine receptor (Rattus norvegicus) (UniProt P61169); experiment: In vitro binding affinity for Dopamine receptor D2 of rat striatum labeled with [3H]-spiperone was determined at 10 uM concentration; type: tissue-based
[14] = tested on: Rattus norvegicus; experiment: Antipsychotic activity was assessed by ability to block response of rats trained to avoid an electrical shock (inhibition of self-jump and/or discrete trial conditioned avoidance response(CAR) upon ip administration; value ranges from 7-18; type: functional
[15] = molecular target: T1, D(2) dopamine receptor; experiment: In vitro binding affinity for Dopamine receptor D2 of rat nucleus accumbens labeled with [3H]spiperone was determined at 10 uM concentration.
[16] = tested on: Rattus norvegicus; experiment: Antipsychotic activity was assessed by ability to block response of rats trained to avoid an electrical shock (inhibition of self-jump and/or discrete trial conditioned avoidance response(CAR) upon ip administration; value ranges from 15-33; type: functional
[17] = tested on: Rattus norvegicus; experiment: Antipsychotic activity was assessed by ability to block response of rats trained to avoid an electrical shock (inhibition of self-jump and/or discrete trial conditioned avoidance response(CAR) upon po administration; value ranges from 0.1-3.5; type: functional
[18] = tested on: Rattus norvegicus; experiment: Antipsychotic activity was assessed by ability to block response of rats trained to avoid an electrical shock (inhibition of self-jump and/or discrete trial conditioned avoidance response(CAR) upon ip administration; value ranges from 0.12-0.33; type: functional
[19] = tested on: Rattus norvegicus; experiment: Antipsychotic activity was assessed by ability to block response of rats trained to avoid an electrical shock (inhibition of self-jump and/or discrete trial conditioned avoidance response(CAR) upon ip administration; value ranges from 2-7; type: functional
[20] = tested on: Rattus norvegicus; experiment: Antipsychotic activity was assessed by ability to block response of rats trained to avoid an electrical shock (inhibition of self-jump and/or discrete trial conditioned avoidance response(CAR) upon po administration; value ranges from 2-3; type: functional
[21] = tested on: Rattus norvegicus; experiment: Antipsychotic activity was assessed by ability to block response of rats trained to avoid an electrical shock (inhibition of self-jump and/or discrete trial conditioned avoidance response(CAR) upon ip administration; value ranges from 33-37; type: functional
[22] = molecular target: D(2) dopamine receptor (Rattus norvegicus) (UniProt P61169); experiment: In vitro binding affinity for Dopamine receptor D2 of rat striatum labeled with [3H]spiperone was determined at 10 uM concentration; type: tissue-based
[23] = tested on: Rattus norvegicus; experiment: Antipsychotic activity was assessed by ability to block response of rats trained to avoid an electrical shock (inhibition of self-jump and/or discrete trial conditioned avoidance response(CAR) upon ip administration; value ranges from 15-22; type: functional
[24] = tested on: Rattus norvegicus; experiment: Antipsychotic activity was assessed by ability to block response of rats trained to avoid an electrical shock (inhibition of self-jump and/or discrete trial conditioned avoidance response(CAR) upon po administration; value ranges from 8-17; type: functional
[25] = tested on: Rattus norvegicus; experiment: Antipsychotic activity was assessed by ability to block response of rats trained to avoid an electrical shock (inhibition of self-jump and/or discrete trial conditioned avoidance response(CAR) upon ip administration; value ranges from 6.5-7.5; type: functional

T1 sequence (P61169 whole entry): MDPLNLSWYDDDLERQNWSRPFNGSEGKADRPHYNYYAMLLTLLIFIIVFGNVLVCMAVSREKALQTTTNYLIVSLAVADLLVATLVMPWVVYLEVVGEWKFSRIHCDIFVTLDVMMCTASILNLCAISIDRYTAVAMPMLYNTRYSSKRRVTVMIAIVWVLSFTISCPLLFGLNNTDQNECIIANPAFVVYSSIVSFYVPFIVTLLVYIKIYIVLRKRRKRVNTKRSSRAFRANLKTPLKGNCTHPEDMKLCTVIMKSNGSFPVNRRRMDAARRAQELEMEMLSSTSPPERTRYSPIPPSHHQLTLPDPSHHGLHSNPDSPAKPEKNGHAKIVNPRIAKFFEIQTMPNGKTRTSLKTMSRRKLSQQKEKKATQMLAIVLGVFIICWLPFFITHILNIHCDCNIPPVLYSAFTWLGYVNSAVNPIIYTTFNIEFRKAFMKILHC
D(2) dopamine receptor (Rattus norvegicus), sequence (P61169 whole entry): as above

SMILES | AB50 [2] | inhibition [6] | further results
c1cncc(CCCN2CCc3c(n(CCCN4CCCCC4)c4ccccc34)C2)c1 | >40 mg/kg |  | inhibition [1]: 26%
c1ccc2c3c([nH]c2c1)CN(CCCCc1ccncc1)CC3 |  |  | AB50 [3]: 14 mg/kg; Ki [4]: 0.525 µM; AB50 [5]: 31 mg/kg
c1ccc2c3c([nH]c2c1)CN(CCc1cnccn1)CC3 |  | 13% | 
c1ccc2c3c([nH]c2c1)CN(CCCc1ccncc1)CC3 |  |  | AB50 [7]: 40 mg/kg
COc1ccc2[nH]c3c(c2c1)CCN(Cc1c(OC)cccc1OC)C3 |  | 15% | inhibition [1]: 27%
COc1ccc2[nH]c3c(c2c1)CCN(CCc1ccncc1)C3 |  |  | inhibition [8]: 53%
c1ccc(CCN2CCc3c([nH]c4ccccc34)C2)nc1 |  | 38% | AB50 [9]: 23 mg/kg
CC1CN(CCCN2CCc3c([nH]c4ccccc34)C2)CC(C)N1 (configuration not stated) | >40 mg/kg | 38% | 
Fc1ccc(C(CCCN2CCc3c([nH]c4ccccc34)C2)c2ccc(F)cc2)cc1 | >40 mg/kg |  | 
FC(F)(F)c1ccc(CN2CCN(CCCN3CCc4c([nH]c5ccccc45)C3)CC2)cc1 | >40 mg/kg |  | 
c1ccc2c(N3CCc4c([nH]c5ccccc45)C3)ccnc2c1 | >40 mg/kg | 7% | 
Clc1ccc2[nH]c3c(c2c1)CCN(CCc1ccncc1)C3 |  |  | AB50 [10]: >40 mg/kg
c1coc(CN2CCc3c([nH]c4ccccc34)C2)c1 |  | 7% | 
COc1ccc2[nH]c3c(c2c1)CCN(CCc1ccccn1)C3 |  | 8% | 
Fc1ccc2[nH]c3c(c2c1)CCN(CCc1ccc2ccccc2n1)C3 | 40 mg/kg |  | 
CN(C)CCCn1c2c(c3ccccc31)CCN(CCCc1ccncc1)C2 | >40 mg/kg | 0% | 
c1ccc2nc(CCCCN3CCc4c([nH]c5ccccc45)C3)ccc2c1 |  |  | Ki [4]: 0.139 µM; AB50 [11]: 31 mg/kg
C[C@@H]1CN(CCCn2c3ccccc3c3ccccc32)C[C@H](C)N1 [RIMCAZOLE] |  |  | AB50 [12]: 39 mg/kg
Cn1c(CN2CCc3c([nH]c4ccccc34)C2)nc2ccccc21 |  | 6% | 
c1ccc2nc(CN3CCc4c([nH]c5ccccc45)C3)ccc2c1 | 48 mg/kg | 7% | inhibition [13]: 7%
c1ccc2nc(CCN3CCc4c([nH]c5ccccc45)C3)ccc2c1 |  |  | Ki [4]: 0.211 µM; AB50 [14]: 10 mg/kg
Fc1ccc2[nH]c3c(c2c1)CCN(CCCCc1ccncc1)C3 | >40 mg/kg |  | Ki [15]: 0.72 µM
O=C(c1nccc2ccccc12)N1CCc2c([nH]c3ccccc23)C1 | >40 mg/kg | 6% | 
c1ccc(CCN2CCc3c(n(CCCN4CCCCC4)c4ccccc34)C2)nc1 | >40 mg/kg |  | inhibition [1]: 9%

SMILES | AB50 [2] | inhibition [6] | further results
c1ccc2c(CN3CCc4c([nH]c5ccccc45)C3)ccnc2c1 | >40 mg/kg | 26% | 
c1cncc(CCCN2CCc3c([nH]c4ccccc34)C2)c1 |  |  | AB50 [16]: 21 mg/kg
O=C(CCCN1CCC(O)(c2ccc(Cl)cc2)CC1)c1ccc(F)cc1 [HALOPERIDOL] |  |  | AB50 [17]: 0.2 mg/kg; AB50 [18]: 0.2 mg/kg
COc1cccc(OC)c1CN1CCc2c([nH]c3ccccc23)C1 |  | 15% | inhibition [1]: 27%
Clc1cccc(N2CCN(CCCn3c4c(c5ccccc53)CCN(CCc3ccccn3)C4)CC2)c1 | >40 mg/kg |  | 
CN(C)CCCn1c2c(c3ccccc31)CCN(CCCc1cccnc1)C2 | >40 mg/kg |  | inhibition [1]: 17%
Clc1ccc2[nH]c3c(c2c1)CCN(CCCCc1ccncc1)C3 | >40 mg/kg | 51% | 
CN(C)CCCN1c2ccccc2Sc2ccc(Cl)cc21 [CHLORPROMAZINE] |  |  | AB50 [19]: 4 mg/kg; AB50 [20]: 3 mg/kg
Fc1ccc(C(c2ccc(F)cc2)N2CCN(CCCN3CCc4c([nH]c5ccccc45)C3)CC2)cc1 | >40 mg/kg |  | 
Clc1cccc(N2CCN(CCCn3c4c(c5ccccc53)CCN(CCCc3cccnc3)C4)CC2)c1 | >40 mg/kg |  | 
c1cnc(N2CCN(CCCN3CCc4c([nH]c5ccccc45)C3)CC2)nc1 |  |  | AB50 [21]: 35 mg/kg
O=C(CCCn1c2c(c3ccccc31)CCN(CCc1ccccn1)C2)c1ccc(F)cc1 | >40 mg/kg |  | 
OC1(c2ccc(Cl)cc2)CCN(CCCn2c3c(c4ccccc42)CCN(CCc2ccccn2)C3)CC1 | >40 mg/kg |  | 
c1ccc2c3c([nH]c2c1)CN(Cc1ccncc1)CC3 |  | 13% | inhibition [22]: 27%
c1ccc2c(c1)c1c(n2CCCN2CCCCC2)CN(CCCc2ccncc2)CC1 | >40 mg/kg |  | inhibition [1]: 22%
c1ccc2c(CCCCN3CCc4c([nH]c5ccccc45)C3)ccnc2c1 |  |  | AB50 [23]: 18 mg/kg
FC(F)(F)c1cccc(N2CCN(CCCN3CCc4c([nH]c5ccccc45)C3)CC2)c1 | >40 mg/kg |  | 
c1ccc(Cn2c3c(c4ccccc42)CCN(CCc2ccccn2)C3)cc1 | >40 mg/kg |  | 
Clc1ccc2[nH]c3c(c2c1)CCN(CCc1ccc2ccccc2n1)C3 | >40 mg/kg |  | 
Clc1cccc(N2CCN(CCCN3CCc4c([nH]c5ccccc45)C3)CC2)c1 | >40 mg/kg |  | 
Fc1ccc2[nH]c3c(c2c1)CCN(CCCCc1ccnc2ccccc12)C3 | >40 mg/kg |  | 
Fc1ccc2[nH]c3c(c2c1)CCN(CCc1ccccn1)C3 | 40 mg/kg | 75% | 
CN1CCN(C2=Nc3cc(Cl)ccc3Nc3ccccc32)CC1 [CLOZAPINE] |  |  | AB50 [24]: 11 mg/kg; AB50 [25]: 7 mg/kg

From ChEMBL document CHEMBL1123765, “Psychotropic agents: synthesis and antipsychotic activity of substituted beta-carbolines” (J Med Chem, 1987)
